Measurements as given in patent US20100061994A1, “MEDICAL USES OF 39-DESMETHOXYRAPAMYCIN AND ANALOGUES THEREOF” (priority 2005, published 2010).

What was measured:
Assay in all cases: Monolayer assay Protocol 2 (SRB), high MDR-expressing cell lines
Type in all cases: cell-based
[1] = system: SW-620; conditions: Homo sapiens; Colon SW-620, high MDR-expressing, 48 h
Experimental: (§1) The human tumor cell lines of the National Cancer Institute (NCI) cancer screening panel were grown in RPMI 1640 medium containing 5% fetal bovine serum and 2 mM L-glutamine (Boyd and Paull, 1995). Cells were inoculated into 96 well microtiter plates in 0.1 mL at plating densities ranging from 5,000 to 40,000 cells/well depending on the doubling time of individual cell lines. After cell inoculation, the microtiter plates were incubated at 37° C., 5% CO2, 95% air and 100% relative humidity for 24 h prior to addition of experimental drugs.
(§2) After 24 h, two plates of each cell line were fixed in situ with trichloroacetic acid (TCA), to represent a measurement of the cell population for each cell line at the time of drug addition (Tz). Experimental drugs were solubilized in dimethyl sulfoxide at 400-fold the desired final maximum test concentration and stored frozen prior to use. At the time of drug addition, an aliquot of frozen concentrate was thawed and diluted to twice the desired final maximum test concentration with complete medium containing 0.05 mg/mL gentamicin. Additional four, 10-fold or ½ log serial dilutions were made to provide a total of five drug concentrations plus control. […]
(§3) Following drug addition, the plates were incubated for an additional 48 h at 37° C., 5% CO2, 95% air, and 100% relative humidity. […] Bound stain was subsequently solubilized with 10 mM trizma base, and the absorbance was read on an automated plate reader at a wavelength of 515 nm. […] Using the seven absorbance measurements [time zero, (Tz), control growth, (C), and test growth in the presence of drug at the five concentration levels (Ti)], the percentage growth was calculated at each of the drug concentrations levels. Percentage growth inhibition was calculated as:
(§4) Three dose response parameters were calculated for each experimental agent. […] The drug concentration resulting in total growth inhibition (TGI) was calculated from Ti=Tz. […]

[2] = system: UO-31; conditions: Homo sapiens; Renal UO-31, high MDR-expressing, 48 h
Experimental: as §1, §2, §3, §4

[3] = system: HOP-62; conditions: Homo sapiens; NSCLC HOP-62, high MDR-expressing, 48 h
Experimental: as §1, §2, §3, §4

SMILES: CO[C@H]1C[C@@H]2CC[C@@H](C)[C@@](O)(O2)C(=O)C(=O)N2CCCC[C@H]2C(=O)O[C@H]([C@H](C)C[C@@H]2CC[C@@H](O)[C@H](OC)C2)CC(=O)[C@H](C)/C=C(\C)[C@@H](O)[C@@H](OC)C(=O)[C@H](C)C[C@H](C)/C=C/C=C/C=C/1C [Rapamycin]
- GI50 [1]: 25100 nM
- GI50 [2]: 100 nM
- GI50 [3]: 234 nM
